The target in one assay is T1, ERα receptor (Rattus norvegicus, UniProt P06211).
T1 sequence (P06211 1-600): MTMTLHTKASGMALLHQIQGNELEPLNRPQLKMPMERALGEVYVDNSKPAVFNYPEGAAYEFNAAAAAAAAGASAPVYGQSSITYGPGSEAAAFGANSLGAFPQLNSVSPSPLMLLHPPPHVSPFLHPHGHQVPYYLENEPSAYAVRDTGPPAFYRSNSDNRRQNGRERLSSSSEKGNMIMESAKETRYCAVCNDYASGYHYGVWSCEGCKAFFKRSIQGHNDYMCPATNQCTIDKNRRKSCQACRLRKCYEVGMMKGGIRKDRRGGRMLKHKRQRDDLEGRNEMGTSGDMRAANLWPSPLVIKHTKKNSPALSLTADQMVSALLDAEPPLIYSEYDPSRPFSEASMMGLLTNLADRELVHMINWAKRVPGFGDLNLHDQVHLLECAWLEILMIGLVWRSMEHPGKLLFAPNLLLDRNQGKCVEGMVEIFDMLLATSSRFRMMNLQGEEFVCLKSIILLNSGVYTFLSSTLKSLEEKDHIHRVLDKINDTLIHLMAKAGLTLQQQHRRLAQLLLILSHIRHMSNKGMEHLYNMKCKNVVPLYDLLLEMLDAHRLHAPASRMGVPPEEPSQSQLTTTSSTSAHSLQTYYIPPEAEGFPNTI
Kind of assay: Saturation binding / Scatchard analysis, D12 cytosolic (S2) fraction. How it is done:
(§1) Briefly, cells were harvested in a binding buffer (10 mM Tris-HCl, 1 mM EDTA, 1 mM DTT; pH=7.2) containing 5 μg/ml protease inhibitors (aprotinin, leupeptin, phosphoramidon, PMSF, pepstatin), pelleted to remove cell media and then homogenized by mechanical disruption (polytron; speed 6 for 10 sec). Unlysed cells and debris were removed by centrifugation at 15,000×g for 15 min at 4° C. The resulting supernatant was homogenized and membranes were isolated by centrifugation at 100,000×g for 1 h at 4° C. The supernatant obtained following the high speed spin was labeled S2 (cytosol) while the pellet was labeled P2 (membranes). The pellet (P2) was resuspended using a glass homogenizer in 3 ml of 0.25 M sucrose in binding buffer. The sucrose gradient was layered in a 15 ml centrifuge tube starting with 41%, 25%, and 10% sucrose using J tubes. The P2 sample was added to the top and the remaining layer was capped with binding buffer. The tubes were centrifuged at 35,000×g for 1 h, placed in a fraction collector (bottom tube draw) and 500 μl samples were collected. Protein concentrations were determined with BCA reagent (Pierce). […] Statistical significance between IC50s and KDs was determined using a pair-wise Z-test. […]

Another assay deals with mER receptor. The experiment in a line: Saturation binding / Scatchard analysis, D12 membrane (P2) fraction. The arrangement: species or system rat. How it is done:
as §1

Usually Kd stands for the constant that tells how readily two partners part at equilibrium. Turning to `C[C@]12CC[C@@H]3c4ccc(O)cc4CC[C@H]3[C@@H]1C[C@@H]([125I])[C@@H]2O` [[^125I]-16α-iodo-3,17β-E2, [^125I]-16-α-iodo-3,17-βestradiol], the slope value on ERα receptor (S2 fraction) came to 0.8. The figures for the Kd on ERα receptor (cytosolic (S2) binding) and on mER receptor were 0.124 ± 0.0171 nM and 0.118 ± 0.0436 nM, respectively.

Values taken from patent US20040180819A1, “Characterization of a membrane estrogen receptor” (priority 2001, published 2004).
